Measured values reported in patent US20250295732A1, “COMPOSITIONS AND METHODS FOR ACTIVATING INNATE IMMUNITY” (Zoetis Services LLC, priority 2021, published 2025).

Columns and labels:
[1] = tested on: bovine monocyte-derived macrophages; experiment: LPS-induced lactate production (LactateGlo); format: cell-based; settings: CATH2 24 hr, removal, 3-day rest, LPS 24 hours; vs vehicle
Description: (§1) Peripheral blood mononuclear cells (PBMC) were isolated from bovine blood using ficoll gradients. Bovine monocytes were isolated from PBMC using magnetic assisted cell sorting to positively select for CD14+ cells using anti-human CD14 microbeads (Miltenyi Biotec). Purified bovine blood CD14+ monocytes were differentiated into macrophages using an M2-skewing differentiation factor (recombinant bovine M-CSF) over 7 days then exposed to CATH2 or a vehicle control in the presence of bovine casein to mimic aspects of the mammary gland for 24 hr. Following treatment, vehicle and drug were removed and cells were washed to eliminate residual drug and monocyte-derived macrophages were rested for 3 days in order to assess reprogramming. Following the rest period, a subset of vehicle- and CATH2-trained monocyte-derived macrophages were assessed for epigenetic and transcriptomic changes. The remaining cells were challenged with LPS or E. coli bioparticle labeled with pH-sensitive pHrodo green dye and key parameters for macrophage activation/immune response were assessed including glycolytic activity, surface marker expression, gene expression, cytokine production, phagocytosis, reactive nitrogen species production, and miRNA profiling.
Lactate levels in cell culture supernatant were quantified using LactateGlo® (Promega) according to manufacturer's instructions.

[2] = tested on: bovine monocyte-derived macrophages; experiment: microRNASeq analysis; format: cell-based; settings: CATH2 vs vehicle
Description: as §1
Bovine monocyte-derived macrophages were lysed in Buffer RLT with addition of (3-mercaptoethanol (QIAGEN) and stored at −80° C. until miRNA/mRNA isolations could be performed. Total RNA including miRNA was isolated from cell lysates using the miRNeasy Tissues/Cells Advanced kit (QIAGEN) following the manufacturer's instructions. mRNA and miRNA libraries were prepared using the TruSeq Stranded mRNA Library Prep Kit (Illumina) and QIAseq miRNA Library Kit, respectively (QIAGEN) according to the manufacturer's instructions. Libraries were run on the Illumina NextSeq550 System. Sequencing data were analyzed using CLC Genomics Workbench software and QIAGEN Ingenuity Pathway Analysis (IPA).

[3] = 3-day rest, 8-hour post-LPS, Experiment A
[4] = 3-day rest, 8-hour post-LPS, Experiment B
[5] = 3-day rest, 24-hour post-LPS, Experiment A
[6] = 3-day rest, 24-hour post-LPS, Experiment B
[7] = after 3-day rest, prior to LPS challenge

With “RFGRFLRKIRRFRPKVTITIQGSARFG [CATH2, cathelicidin 2 peptide]” the “LPS-induced lactate production in supernatant” value [1] was “increased lactate production”, the “bta-miR-146b Fold change” value [2, 3] was 2.85 and the “bta-miR-146b Log2 fold change” value [2, 3] was 1.51. The “bta-miR-148a Fold change” value [2, 3] was −1.79, the “bta-miR-148a Log2 fold change” value [2, 3] was −0.84 and the “bta-miR-181b Fold change” value [2, 3] was 1.60. For the same sequence, the “bta-miR-181b Log2 fold change” value [2, 3] was 0.68, the “bta-miR-1814c Fold change” value [2, 3] was −1.77 and the “bta-miR-1814c Log2 fold change” value [2, 3] was −0.83. For the same sequence, the “hsa-miR-155-5p Fold change” value [2, 3] was 1.89, the “hsa-miR-155-5p Log2 fold change” value [2, 3] was 0.92 and the “bta-miR-146b Fold change” value [2, 4] was 1.56. For the same sequence, the “bta-miR-146b Log2 fold change” value [2, 4] was 0.64, the “bta-miR-148a Fold change” value [2, 4] was −1.44 and the “bta-miR-148a Log2 fold change” value [2, 4] was −0.52. The “bta-miR-181b Fold change” value [2, 4] was 1.76, the “bta-miR-181b Log2 fold change” value [2, 4] was 0.82 and the “bta-miR-1814c Fold change” value [2, 4] was −2.05. The “bta-miR-1814c Log2 fold change” value [2, 4] was −1.04, the “hsa-miR-155-5p Fold change” value [2, 4] was 2.20 and the “hsa-miR-155-5p Log2 fold change” value [2, 4] was 1.14. The “bta-miR-146b Fold change” value [2, 5] was 4.52, the “bta-miR-146b Log2 fold change” value [2, 5] was 2.18 and the “hsa-miR-146b-5p Fold change” value [2, 5] was 2.27. For the same sequence, the “hsa-miR-146b-5p Log2 fold change” value [2, 5] was 1.18, the “bta-miR-146b Fold change” value [2, 6] was 4.34 and the “bta-miR-146b Log2 fold change” value [2, 6] was 2.12. For the same sequence, the “hsa-miR-146b-5p Fold change” value [2, 6] was 1.71, the “hsa-miR-146b-5p Log2 fold change” value [2, 6] was 0.77 and the “bta-miR-27a-3p Fold change” value [2, 7] was −1.31. For the same sequence, the “bta-miR-27a-3p Log fold change” value [2, 7] was −0.39, the “bta-miR-29a Fold change” value [2, 7] was −1.36 and the “bta-miR-29a Log fold change” value [2, 7] was −0.44. The “bta-miR-29c Fold change” value [2, 7] was −1.45, the “bta-miR-29c Log fold change” value [2, 7] was −0.54 and the “bta-miR-30f Fold change” value [2, 7] was 1.57. The “bta-miR-30f Log fold change” value [2, 7] was 0.65, the “bta-miR-92b Fold change” value [2, 7] was 1.52 and the “bta-miR-92b Log fold change” value [2, 7] was 0.60. The “bta-miR-101 Fold change” value [2, 7] was −1.47, the “bta-miR-101 Log fold change” value [2, 7] was −0.55 and the “bta-miR-142-5p Fold change” value [2, 7] was −1.43. The “bta-miR-142-5p Log fold change” value [2, 7] was −0.51, the “bta-miR-148a Fold change” value [2, 7] was −1.78 and the “bta-miR-148a Log fold change” value [2, 7] was −0.83. The “bta-miR-148b Fold change” value [2, 7] was −1.43, the “bta-miR-148b Log fold change” value [2, 7] was −0.51 and the “bta-miR-149-5p Fold change” value [2, 7] was 1.43. The “bta-miR-149-5p Log fold change” value [2, 7] was 0.52, the “bta-miR-181b Fold change” value [2, 7] was 1.38 and the “bta-miR-181b Log fold change” value [2, 7] was 0.47. For the same sequence, the “bta-miR-184 Fold change” value [2, 7] was 2.61, the “bta-miR-184 Log fold change” value [2, 7] was 1.38 and the “bta-miR-187 Fold change” value [2, 7] was −2.07. The “bta-miR-187 Log fold change” value [2, 7] was −1.05, the “bta-miR-193a-5p Fold change” value [2, 7] was 1.60 and the “bta-miR-193a-5p Log fold change” value [2, 7] was 0.68. The “bta-miR-197 Fold change” value [2, 7] was 1.37, the “bta-miR-197 Log fold change” value [2, 7] was 0.46 and the “bta-miR-199a-3p Fold change” value [2, 7] was 1.92. The “bta-miR-199a-3p Log fold change” value [2, 7] was 0.94, the “bta-miR-296-5p Fold change” value [2, 7] was 2.10 and the “bta-miR-296-5p Log fold change” value [2, 7] was 1.07. For the same sequence, the “bta-miR-320a Fold change” value [2, 7] was 1.68, the “bta-miR-320a Log fold change” value [2, 7] was 0.75 and the “bta-miR-326 Fold change” value [2, 7] was 1.47. The “bta-miR-326 Log fold change” value [2, 7] was 0.55, the “bta-miR-331-3p Fold change” value [2, 7] was 1.61 and the “bta-miR-331-3p Log fold change” value [2, 7] was 0.69. The “bta-miR-365-3p Fold change” value [2, 7] was 1.59, the “bta-miR-365-3p Log fold change” value [2, 7] was 0.67 and the “bta-miR-374a Fold change” value [2, 7] was −1.59. The “bta-miR-374a Log fold change” value [2, 7] was −0.67, the “bta-miR-500 Fold change” value [2, 7] was 1.43 and the “bta-miR-500 Log fold change” value [2, 7] was 0.51. For the same sequence, the “bta-miR-652 Fold change” value [2, 7] was 1.46, the “bta-miR-652 Log fold change” value [2, 7] was 0.54 and the “bta-miR-877 Fold change” value [2, 7] was 1.93. For the same sequence, the “bta-miR-877 Log fold change” value [2, 7] was 0.95, the “bta-miR-1249 Fold change” value [2, 7] was 1.43 and the “bta-miR-1249 Log fold change” value [2, 7] was 0.52. For the same sequence, the “bta-miR-1260b Fold change” value [2, 7] was 1.63, the “bta-miR-1260b Log fold change” value [2, 7] was 0.70 and the “bta-miR-1307 Fold change” value [2, 7] was 1.49. For the same sequence, the “bta-miR-1307 Log fold change” value [2, 7] was 0.57, the “bta-miR-2285bf Fold change” value [2, 7] was −1.52 and the “bta-miR-2285bf Log fold change” value [2, 7] was −0.61. The “bta-miR-2447 Fold change” value [2, 7] was 1.92, the “bta-miR-2447 Log fold change” value [2, 7] was 0.94 and the “bta-miR-6523a Fold change” value [2, 7] was 1.39. For the same sequence, the “bta-miR-6523a Log fold change” value [2, 7] was 0.47, the “bta-miR-6529a Fold change” value [2, 7] was 1.32 and the “bta-miR-6529a Log fold change” value [2, 7] was 0.40. For the same sequence, the “hsa-let-7d-3p Fold change” value [2, 7] was 1.62, the “hsa-let-7d-3p Log fold change” value [2, 7] was 0.70 and the “hsa-miR-30e-5p Fold change” value [2, 7] was −1.45. The “hsa-miR-30e-5p Log fold change” value [2, 7] was −0.54, the “hsa-miR-16-1-3p Fold change” value [2, 7] was −2.57 and the “hsa-miR-16-1-3p Log fold change” value [2, 7] was −1.36. The “hsa-miR-21-5p Fold change” value [2, 7] was −1.33, the “hsa-miR-21-5p Log fold change” value [2, 7] was −0.41 and the “hsa-miR-29a-3p Fold change” value [2, 7] was −1.32. The “hsa-miR-29a-3p Log fold change” value [2, 7] was 0.40, the “hsa-miR-29b-1-5p Fold change” value [2, 7] was 1.90 and the “hsa-miR-29b-1-5p Log fold change” value [2, 7] was 0.92. For the same sequence, the “hsa-miR-142-3p Fold change” value [2, 7] was −1.57, the “hsa-miR-142-3p Log fold change” value [2, 7] was −0.65 and the “hsa-miR-142-5p Fold change” value [2, 7] was −1.55. The “hsa-miR-142-5p Log fold change” value [2, 7] was −0.63, the “hsa-miR-143-3p Fold change” value [2, 7] was −1.96 and the “hsa-miR-143-3p Log fold change” value [2, 7] was −0.97. The “hsa-miR-152-3p Fold change” value [2, 7] was −1.37, the “hsa-miR-152-3p Log fold change” value [2, 7] was 0.45 and the “hsa-miR-155-5p Fold change” value [2, 7] was 1.31. For the same sequence, the “hsa-miR-155-5p Log fold change” value [2, 7] was 0.39, the “hsa-miR-192-5p Fold change” value [2, 7] was −1.47 and the “hsa-miR-192-5p Log fold change” value [2, 7] was −0.56. For the same sequence, the “hsa-miR-340-5p Fold change” value [2, 7] was −1.47, the “hsa-miR-340-5p Log fold change” value [2, 7] was −0.56 and the “hsa-miR-532-3p Fold change” value [2, 7] was 1.51. The “hsa-miR-532-3p Log fold change” value [2, 7] was 0.60, the “hsa-miR-574-3p Fold change” value [2, 7] was 1.36 and the “hsa-miR-574-3p Log fold change” value [2, 7] was 0.44. The “hsa-miR-1260b Fold change” value [2, 7] was 2.19, the “hsa-miR-1260b Log fold change” value [2, 7] was 1.13 and the “hsa-miR-9983-3p Fold change” value [2, 7] was −1.40. For the same sequence, the “hsa-miR-9983-3p Log fold change” value [2, 7] was 0.48, the “hsa-miR-10395-3p Fold change” value [2, 7] was −2.92 and the “hsa-miR-10395-3p Log fold change” value [2, 7] was −1.55. For the same sequence, the “hsa-miR-12135 Fold change” value [2, 7] was −1.63, the “hsa-miR-12135 Log fold change” value [2, 7] was −0.71 and the “Number of miRNAs significantly altered” value ([2]; after rest period, prior to LPS challenge) was 51.
